The target of experiment [1] is p38α/MK2 (Homo sapiens, UniProt Q16539). The experiment can be described thus: p38α/MK2 cascade assay (IMAP, Hsp27 peptide phosphorylation). It counts as biochemical. The settings on record: for pIC50: p38α/MK2 cascade, Hsp27 peptide 1 μM, MgATP 10 μM, 120 minutes, read-out: p38/MK2 IC50; for Selectivity Ratio: ratio of p38α/PRAK:p38α/MK2 IC50 values. As for the experimental part: (§1) P38 inhibitory potency and P38/MK2 substrate selectivity: The novel, MK2 substrate-selective inhibitory mechanism of compounds is evaluated in enzyme assays that compare inhibitor potency in blocking p38/MK2 versus p38/PRAK induced phosphorylation of an HSP-27 derived peptide substrate. The ability of compounds to inhibit activated phospho-p38α is evaluated using a p38α/MK2 and a p38α/PRAK cascade assay format. The kinase activity of p38α is determined by its ability to phosphorylate and activate GST-MK2 or GST-PRAK. The kinase activity of activated MK2 and PRAK is followed by measuring the phosphorylation of a fluorescently-labeled, peptide substrate based on the sequence of Hsp27 (FITC-KKKALSRQLSVAA). The phosphorylation of the Hsp27 peptide is quantified using IMAP assay technology (Molecular Devices) and the Analyst HT plate reader (LJL Biosystems). Kinase reactions are carried out in a 384-well plate (Corning 3575) in 20 mM HEPES pH 7.5, 10 mM MgCl2, 0.0005% Tween-20, 0.01% BSA, 1 mM DTT, and 2% DMSO. The inhibitor concentration varies between 0.5-30,000 nM, while the Hsp27 peptide substrate and MgATP are held constant at 1 μM and 10 μM, respectively. Activated p38α is added to a final concentration of 20 pM for reactions with 1 nM nonphosphorylated 1 nM GST-MK2. For the p38α/PRAK cascade, unactivated GST-PRAK is held constant at 10 nM while p38α is added to a final concentration of […]. Kinase reactions are incubated at room temperature and quenched after 120 minutes by the addition of 1× Progressive Binding Buffer A containing 1×IMAP beads (IMAP FP Progressive Screening Express Kit, Molecular Devices Catalog Number R8127). Inhibitor potency is calculated by fitting dose-response data to the 4-parameter logistical IC50 equation. The substrate selectivity is calculated as a ratio of p38α/PRAK:p38α/MK2 IC50 values. A substrate selective inhibitor will have a p38α/PRAK:p38α/MK2 IC50 ratio of >2 while a classical p38 inhibitor will have a ratio of between 0.5-2. […] By way of example, the enhanced therapeutic benefit could be associated with a reduction in inhibition of p38 mediated anti-inflammatory functions, such as IL-10 production and TAB1 phosphorylation. An increased safety profile is expected based, for example, on a reduced inhibition of p38 substrates, such as PPARg and CDC25 phosphatase and PLA2 involved in gluconeogenesis and cell cycle regulation, respectively.

Experiment [2] has as its system TNFα. The experiment can be described thus: LPS stimulated TNFα production in human PBMCs (ELISA). It counts as cell-based. The settings on record: PBMC, LPS 0.1 μg/ml, 18-24 hours, read-out: PBMC Cell, TNFα IC50. The method, then: Evaluation of the potency and efficacy of p38 inhibitors to block cytokine production is carried out using the human U937 cell line and purified human PBMCs (peripheral blood mononuclear cells). The U937 human pre-monocytic cell line is obtained from the American Type Culture Collection (Rockville, Md.). These cells are differentiated to a monocytic/macrophage phenotype as described by Burnette (Burnette et al., (2009). SD0006: a potent, selective and orally available inhibitor of p38 kinase, Pharmacology 84(1):42-60). Differentiated U937 cells are seeded into 96-well tissue culture plates (200,000 cells/well) in complete media. After 24 hours, the cells are pretreated for 60 minutes in the presence or absence of compound and then stimulated with LPS (lipopolysaccharide) (0.1 μg/mL) for 4 hours. Culture media are then collected for determination of TNFα or IL-6 levels by ELISA. Human PBMCs are isolated from leukopacks as described by Burnette (Burnette et al., (2009), op. cit.). The cells are seeded into 96-well tissue culture plates (200,000 cells/well) in complete media. After a one hour recovery period at 37° C., 5% CO2, the cells are pretreated for 60 minutes in the presence or absence of compound and then stimulated with LPS (0.1 μg/ml) for 18-24 hours. Culture media are then collected for determination of TNFα and IL1β by ELISA. Cytokine concentrations are extrapolated from recombinant protein standard curves using a four-parameter logistic model and solving for IC50 after iterating to the best least-squares fit. p38 inhibitors will show a dose dependent inhibition of LPS stimulated TNFα, and IL6 in differentiated U937 cells and a dose dependent inhibition of LPS stimulated TNFα, IL6 and IL1b in human PBMCs. As drugs that down-regulate TNFα, IL6 and IL1b are efficacious in a number of autoimmune, autoinflammatory inflammatory, cardiovascular and oncological diseases, it would be expected that p38 drugs that inhibit these cytokines and other enzymes and mediators of disease will be effective drugs. Species compounds of Formula (I), described hereinabove, evaluated in this assay, are expected to provide a therapeutic benefit in the treatment of p38 kinase mediated diseases, including lymphoma and inflammation.
In general terms: ELISA stands for enzyme-linked immunosorbent assay.

The target of experiment [3] is p38α/PRAK (Homo sapiens, UniProt Q16539). The experiment can be described thus: p38α/PRAK cascade assay (IMAP, Hsp27 peptide phosphorylation). Type of experiment: biochemical. Conditions: Hsp27 peptide 1 μM, MgATP 10 μM, 120 minutes, read-out: p38/PRAK IC50. As for the experimental part:
as §1

pIC50: −log10 of the molar value. A value given as a limit tells only on which side of the number the result lay.

Chain of p38α/MK2 (Q16539 whole entry): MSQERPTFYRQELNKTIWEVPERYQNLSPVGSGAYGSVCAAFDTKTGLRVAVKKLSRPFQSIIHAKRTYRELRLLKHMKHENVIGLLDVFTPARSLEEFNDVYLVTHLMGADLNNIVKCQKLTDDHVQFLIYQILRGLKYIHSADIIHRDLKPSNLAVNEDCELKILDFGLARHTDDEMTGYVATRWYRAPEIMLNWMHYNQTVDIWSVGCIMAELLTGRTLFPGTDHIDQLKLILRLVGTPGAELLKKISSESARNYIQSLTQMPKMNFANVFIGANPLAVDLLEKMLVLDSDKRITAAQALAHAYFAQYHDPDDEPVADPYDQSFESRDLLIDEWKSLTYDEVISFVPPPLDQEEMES
Chain of p38α/MK2 (P49137 whole entry partner): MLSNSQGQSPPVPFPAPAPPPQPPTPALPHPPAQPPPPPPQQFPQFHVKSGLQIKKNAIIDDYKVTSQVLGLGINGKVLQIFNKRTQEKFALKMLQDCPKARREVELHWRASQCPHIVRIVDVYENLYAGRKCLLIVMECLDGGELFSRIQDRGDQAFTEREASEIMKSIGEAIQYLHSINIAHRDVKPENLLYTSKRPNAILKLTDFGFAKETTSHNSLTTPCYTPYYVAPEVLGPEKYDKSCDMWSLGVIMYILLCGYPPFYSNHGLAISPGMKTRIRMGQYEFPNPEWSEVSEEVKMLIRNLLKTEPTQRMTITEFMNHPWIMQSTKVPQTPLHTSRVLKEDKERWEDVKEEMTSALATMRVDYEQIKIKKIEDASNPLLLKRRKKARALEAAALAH
Chain of p38α/PRAK (Q16539 whole entry): as the sequence (Q16539 whole entry) above

Turning to `COc1cccc(COc2nc(C)n(-c3cc(-c4ccnc(C(C)(C)O)n4)ccc3C)c(=O)c2Cl)c1` [Example 7, 5-chloro-3-(5-(2-(2-hydroxypropan-2-yl)pyrimidin-4-yl)-2-methylphenyl)-6-((3-methoxybenzyl)oxy)-2-methylpyrimidin-4(3H)-one], the values for the pIC50 in experiment [1], in experiment [2] and in experiment [3] were 7.21, 7.03 and 5.83, respectively. Also, the “Selectivity Ratio” value in experiment [1] is on record as 24.
In the case of `Cc1cccc(COc2nc(C)n(-c3cc(-c4ccnc(C(C)(C)O)n4)ccc3C)c(=O)c2Cl)n1` (single isomer, unassigned) [Example 16, (+)-5-chloro-3-(5-(2-(2-hydroxypropan-2-yl)pyrimidin-4-yl)-2-methylphenyl)-2-methyl-6-((6-methylpyridin-2-yl)methoxy)pyrimidin-4(3H)-one], in experiment [1], the pIC50 was 5.30 and the “Selectivity Ratio” value was >6.0. In addition, in experiment [2], the pIC50 is 5.45.
Take `Cc1ccc(-c2ccnc(C(C)(C)O)n2)cc1-n1c(C)nc(OCc2ccc(F)cc2F)c(Br)c1=O` [Example 1, 5-bromo-6-((2,4-difluorobenzyl)oxy)-3-(5-(2-(2-hydroxypropan-2-yl)pyrimidin-4-yl)-2-methylphenyl)-2-methylpyrimidin-4(3H)-one]: the pIC50 in experiment [1] is 7.82; in experiment [2], 7.92; in experiment [3] it was 7.12. Besides, in experiment [1], the “Selectivity Ratio” value is on record as 5.1.
As to `Cc1nc(COc2nc(C)n(-c3cc(-c4ccnc(C(C)(C)O)n4)ccc3C)c(=O)c2Cl)co1` [Example 9, (−)-5-chloro-3-(5-(2-(2-hydroxypropan-2-yl)pyrimidin-4-yl)-2-methylphenyl)-2-methyl-6-((2-methyloxazol-4-yl)methoxy)pyrimidin-4(3H)-one], the results for the pIC50 in experiment [1], in experiment [2] and in experiment [3] were 6.90, 6.56 and 5.88, respectively. In experiment [1], the “Selectivity Ratio” value turned out to be 10.6.
Consider `Cc1ccc(-c2ccnc(C(C)(C)O)n2)cc1-n1c(C)nc(OCc2ccc(F)cc2)c(Cl)c1=O` [Example 3, 5-chloro-6-((4-fluorobenzyl)oxy)-3-(5-(2-(2-hydroxypropan-2-yl)pyrimidin-4-yl)-2-methylphenyl)-2-methylpyrimidin-4(3H)-one], for which the pIC50 in experiment [1] is 7.29; in experiment [2], 7.27; in experiment [3], 6.29. For the same molecule, the “Selectivity Ratio” value in experiment [1] is 10.1.
Taken in the same sequence, the figures for `Cc1cccc(COc2nc(C)n(-c3cc(-c4ccnc(C(C)(C)O)n4)ccc3C)c(=O)c2Cl)n1` [Example 15, (−)-5-chloro-3-(5-(2-(2-hydroxypropan-2-yl)pyrimidin-4-yl)-2-methylphenyl)-2-methyl-6-((6-methylpyridin-2-yl)methoxy)pyrimidin-4(3H)-one] were 7.28, 7.15, 5.91 and 23.6.
Consider `Cc1nc(COc2nc(C)n(-c3cc(-c4ccnc(C(C)(C)O)n4)ccc3C)c(=O)c2Cl)co1` (racemic) [Example 8, 5-chloro-3-(5-(2-(2-hydroxypropan-2-yl)pyrimidin-4-yl)-2-methylphenyl)-2-methyl-6-((2-methyloxazol-4-yl)methoxy)pyrimidin-4(3H)-one], for which the pIC50 was 6.92 in experiment [1], 6.80 in experiment [2] and 5.66 in experiment [3]. In addition, the “Selectivity Ratio” value in experiment [1] came to 18.1.
On to `Cc1ccc(-c2ccnc(C(C)(C)O)n2)cc1-n1c(C)nc(OCc2ncc(F)cc2F)c(Cl)c1=O` [Example 20, (+)-5-chloro-6-((3,5-difluoropyridin-2-yl)methoxy)-3-(5-(2-(2-hydroxypropan-2-yl)pyrimidin-4-yl)-2-methylphenyl)-2-methylpyrimidin-4(3H)-one], for which, in experiment [1], the pIC50 is 5.27 and the “Selectivity Ratio” value is given as 2.82. For the same molecule, the pIC50 in experiment [3] was 4.82.
Turning to `Cc1ccc(-c2ccnc(C(C)(C)O)n2)cc1-n1c(C)nc(OCc2ccc(F)cc2F)c(Cl)c1=O` [Example 2, 5-chloro-6-(2,4-difluoro-benzyloxy)-3-{5-[2-(1-hydroxy-1-methyl-ethyl)-pyrimidin-4-yl]-2-methyl-phenyl}-2-methyl-3H-pyrimidin-4-one], the pIC50 is 7.82 in experiment [1], 8.01 in experiment [2] and 7.08 in experiment [3]. Further, the “Selectivity Ratio” value in experiment [1] stood at 5.5.
Consider `Cc1ccc(-c2ccnc(C(C)(C)O)n2)cc1-n1c(C)nc(OCc2ncc(F)cc2F)c(Cl)c1=O` (racemic) [Example 19, 5-chloro-6-((3,5-difluoropyridin-2-yl)methoxy)-3-(5-(2-(2-hydroxypropan-2-yl)pyrimidin-4-yl)-2-methylphenyl)-2-methylpyrimidin-4(3H)-one], for which the pIC50 in experiment [1] is 7.40; in experiment [2] it was 6.98; in experiment [3] it was 6.25. Also, the “Selectivity Ratio” value in experiment [1] turned out to be 14.1.
Turning to `Cc1nc(COc2nc(C)n(-c3cc(-c4ccnc(C(C)(C)O)n4)ccc3C)c(=O)c2Br)cs1` [Example 11, 5-bromo-3-(5-(2-(2-hydroxypropan-2-yl)pyrimidin-4-yl)-2-methylphenyl)-2-methyl-6-((2-methylthiazol-4-yl)methoxy)pyrimidin-4(3H)-one], the pIC50 was 7.21 in experiment [1], 6.90 in experiment [2] and 6.17 in experiment [3]. The “Selectivity Ratio” value in experiment [1] is 10.9.
As for `Cc1cccc(COc2nc(C)n(-c3cc(-c4ccnc(C(C)(C)C)n4)ccc3C)c(=O)c2Cl)c1` [Example 4, 3-(5-(2-(tert-butyl)pyrimidin-4-yl)-2-methylphenyl)-5-chloro-2-methyl-6-((3-methylbenzyl)oxy)pyrimidin-4(3H)-one], the pIC50 in experiment [1] was 5.99; in experiment [2], 7.00; in experiment [3] it was 4.89. Further, the “Selectivity Ratio” value in experiment [1] was 12.6.
Consider `Cc1cc(COc2nc(C)n(-c3cc(-c4ccnc(C(C)(C)O)n4)ccc3C)c(=O)c2Cl)c(F)cc1F` [Example 23, 5-chloro-6-((2,4-difluoro-5-methylbenzyl)oxy)-3-(5-(2-(2-hydroxypropan-2-yl)pyrimidin-4-yl)-2-methylphenyl)-2-methylpyrimidin-4(3H)-one], for which the results for the pIC50 in experiment [1], in experiment [2] and in experiment [3] were 7.36, 7.13 and 6.29, respectively. The “Selectivity Ratio” value in experiment [1] is recorded as 11.7.
Turning to `Cc1nc(COc2nc(C)n(-c3cc(-c4ccnc(C(C)(C)O)n4)ccc3C)c(=O)c2Cl)co1` (single isomer, unassigned) [Example 10, (+)-5-chloro-3-(5-(2-(2-hydroxypropan-2-yl)pyrimidin-4-yl)-2-methylphenyl)-2-methyl-6-((2-methyloxazol-4-yl)methoxy)pyrimidin-4(3H)-one], in experiment [1], the pIC50 was 4.72 and the “Selectivity Ratio” value is listed as >1.56.

For the origin of these results see US9056110B2, “Substituted pyrimidinone-phenyl-pyrimidinyl compounds” (Confluence Life Sciences, Inc., priority 2011, dated 2015).
